Test results taken from article PMC7824826, “SZR-104, a Novel Kynurenic Acid Analogue with High Permeability through the Blood–Brain Barrier” (Pharmaceutics, 2021).
Blank lines part the entries; values can stand above or below the compound they belong to.

Key:
[1] = system: in vitro blood–brain barrier model (primary rat brain endothelial cells and pericytes on Transwell filters, glial-conditioned media); assay: Permeability assay through the in vitro BBB model; assay type: in vitro ADME; details: for Papp % (permeability coefficient compared to KYNA) / Papp% (permeability coefficient compared to sodium-fluorescein): 10 µM in top compartment; for Papp % (permeability coefficient compared to KYNA): N = 3, relative to KYNA; for Differences among permeability of KYNA, xanthurenic acid and 39B: 30 and 60 min; for Papp% (permeability coefficient compared to sodium-fluorescein): N = 2, relative to sodium-fluorescein; for Permeability compared to other analogues: p < 0.05; for BBB penetration compared to the other derivatives tested: conclusion
Procedure: Primary rat brain endothelial cells (RBECs) were isolated from 2-week old rats. Animals were sacrificed by cervical dislocation. Briefly, after removal of meninges, cerebral cortices were cut into small pieces and digested in two steps with 1 mg/mL collagenase type 2 and 1 mg/mL collagenase/dispase, followed by centrifugation on a percoll gradient (all from Sigma-Aldrich, St. Louis, MO, USA). Isolated microvessels were plated on fibronectin/collagen-coated dishes. Endothelial cells growing out of the microvessels were cultured in DMEM/F12 (Thermo Fisher Scientific, Waltham, MA, USA), 10% plasma-derived serum (PDS, First Link UK Ltd, Birmingham, UK) and growth factors. In the first two days, 4 µg/mL puromycin (Sigma-Aldrich) was added to remove contaminating cells. Cells were frozen in liquid nitrogen and passage 1 cells were further used. Rat brain pericytes were obtained from cerebral microvessels plated onto rat-tail collagen-coated dishes in PM medium (ScienCell, Carlsbad, CA, USA) complemented with 5% fetal bovine serum (FBS) and penicillin/streptomycin. Cells were split into new dishes, frozen in liquid nitrogen and passage 4 cells were further used. Glial cultures (>90% astrocytes) were prepared from newborn rats and cultured on poly-L-lysine-coated surfaces in DMEM (Thermo Fisher Scientific) and 10% FBS (Thermo Fisher Scientific). After reaching confluence, conditioned media was collected twice a week, centrifuged, sterile filtered and kept at −20 °C.
Pericytes were plated onto the backside of 12-well semipermeable filters (Corning-Costar Transwell Clear; pore size: 0.4 μm; 1.5 × 10^4 cells/filter). The next day, RBECs were plated onto the upper surface of the filters. […] TEER was followed until reaching plateau of 150–250 Ohm × cm^2.
Transwell filters containing endothelial cells and pericytes were removed from the CellZscope instrument. Filters were washed with Ringer-HEPES solution (pH = 7.4). […] The bottom compartment was loaded with Ringer-HEPES. Filters were placed to 37 °C and gentle shaking (110 rpm) was applied. Samples were taken from the basolateral side after 30 and 60 min. The concentrations of the samples were quantitated as described below and apparent permeability was calculated using the formula: Papp = dQ/(dT × A × C0), where dQ is the transported amount, dT is the incubation time, A is the surface of filter (1.12 cm^2), and C0 is the initial concentration. Statistical analysis was performed with ANOVA and Bonferroni’s post-hoc test.
The concentrations of the samples were quantitated with an Agilent 1100 HPLC system (Agilent Technologies, Santa Clara, CA, USA), consisting of a binary pump, a micro vacuum degasser, a thermostated column compartment, an automatic liquid sampler, a MS detector (LCMSD VL), and ChemStation data managing software. Chromatographic separations with the HPLC-MS system were performed on a Kinetex C18 column, 100 × 4.6 mm 2.6 μm particle size (Phenomenex, Torrance, CA, USA) with a mobile phase composition of 0.05% aqueous HCOOH/ACN = 90/10 (v/v), applying isocratic elution. The flow rate and the injection volume were 1 mL/min and 20 µL, respectively. The mass spectrometer was used in positive electrospray ionization mode. The drying gas temperature, drying gas flow rate, nebulizer pressure and capillary voltage were 350 °C, 13 L/min, 60 psi and 3500 V, respectively. […]

[2] = system: c-fos and glutamate in NTC neurons; design: method as in PMID 28337634; details: systematic injection; cited from earlier work
[3] = system: NTC; design: method as in PMID 27919017; details: cited from earlier work
[4] = system: MAPK and NFκB; details: intraperitoneally administered; cited from earlier work
[5] = system: PACAP mRNA expression in nucleus trigeminalis caudalis; design: method as in PMID 29387039; details: animal model of migraine; cited from earlier work
[6] = system: transgenic mouse model of HD; design: method as in PMID 21194001; details: cited from earlier work
[7] = system: human lymphoma U-937 cells; design: method as in PMID 31316502; details: U-937 cells infected with Staphylococcus aureus; cited from earlier work
[8] = system: hippocampus; design: method as in PMID 22231843; details: systemic administration; cited from earlier work

Papp % (permeability coefficient compared to KYNA) ([1]; 30 min): 54%
Papp % (permeability coefficient compared to KYNA) ([1]; 60 min): 74%
Differences among permeability of KYNA, xanthurenic acid and 39B ([1]; 10 µM): not statistically significant
Structure (SMILES): O=C(O)c1[nH]c2c(O)cccc2c(=O)c1CN1CCOCC1 [39B, 8-Hydroxy-3-(Morpholinomethyl)-4-Oxo-1,4-Dihydroquinoline-2-Carboxylic Acid]

Papp % (permeability coefficient compared to KYNA) ([1]; 30 min): 100%
Papp % (permeability coefficient compared to KYNA) ([1]; 60 min): 100%
Differences among permeability of KYNA, xanthurenic acid and 39B ([1]; 10 µM): not statistically significant
Structure (SMILES): O=C(O)c1cc(=O)c2ccccc2[nH]1 [KYNA, kynurenic acid]
Elevated levels of c-fos and glutamate in NTC neurons [2]: abolished
Nitroglycerin-induced neuronal activation in NTC (antihyperalgesic effect) [3]: attenuating
Overexpression of MAPK and NFκB [4]: reduced
Electrical TRG stimulation-induced PACAP mRNA expression in NTC [5]: decreased

Structure (SMILES): CN(C)CCNC(=O)c1cc(=O)c2ccccc2[nH]1 [SZR-72, N-(2-N,N-dimethylaminoethyl)-4-oxo-1H-quinoline-2-carboxamide]
Elevated levels of c-fos and glutamate in NTC neurons [2]: abolished
Nitroglycerin-induced neuronal activation in NTC (antihyperalgesic effect) [3]: attenuating
Atrophy of the striatal neurons [6]: completely prevented
Hypolocomotion [6]: ameliorated
Lifetime of mice [6]: prolonged
Overexpression of MAPK and NFκB [4]: reduced
Electrical TRG stimulation-induced PACAP mRNA expression in NTC [5]: decreased

Papp% (permeability coefficient compared to sodium-fluorescein) ([1]; 60 min): 177%
Structure (SMILES): CN(C)CCNC(=O)c1nc2ccccc2c(O)c1CN1CCCCC1 [SZR-100]

Papp% (permeability coefficient compared to sodium-fluorescein) ([1]; 60 min): 131%
Structure (SMILES): O=C(NCCN1CCCC1)c1nc2ccccc2c(O)c1CN1CCCCC1 [SZR-101]

Structure (SMILES): CN(C)CCNC(=O)c1nc2ccccc2c(O)c1CN1CCOCC1 [SZR-104, N-(2-(dimethylamino)ethyl)-3-(morpholinomethyl)-4-hydroxyquinoline-2-carboxamide]
TNF-α production [7]: reduced
mRNA expression of TSG-6 [7]: increased
Papp % (permeability coefficient compared to KYNA) ([1]; 30 min): 210%
Papp% (permeability coefficient compared to sodium-fluorescein) ([1]; 60 min): 325%
Papp % (permeability coefficient compared to KYNA) ([1]; 60 min): 222%
Permeability compared to other analogues ([1]; 10 µM, 60 min): significantly higher
Permeability compared to KYNA, xanthurenic acid or 39B ([1]; 10 µM, both at 30 min and 60 min, p < 0.01): significantly higher permeability
BBB penetration compared to the other derivatives tested [1]: high BBB penetration
Population spike activity in the hippocampus [8]: decreased
Protection against pentylenetetrazol-induced epileptiform seizures [8]: provided protection

Papp% (permeability coefficient compared to sodium-fluorescein) ([1]; 60 min): 319%
Permeability compared to other analogues ([1]; 10 µM, 60 min): significantly higher
BBB penetration compared to the other derivatives tested [1]: high BBB penetration
Structure (SMILES): O=C(NCCN1CCCC1)c1nc2ccccc2c(O)c1CN1CCOCC1 [SZR-105]
TNF-α production [7]: reduced
mRNA expression of TSG-6 [7]: increased

Papp% (permeability coefficient compared to sodium-fluorescein) ([1]; 60 min): 230%
Structure (SMILES): CN(C)CCNC(=O)c1nc2ccccc2c(O)c1CN1CCCC1 [SZR-106]

Papp% (permeability coefficient compared to sodium-fluorescein) ([1]; 60 min): 156%
Structure (SMILES): O=C(NCCN1CCCC1)c1nc2ccccc2c(O)c1CN1CCCC1 [SZR-107]

Papp % (permeability coefficient compared to KYNA) ([1]; 30 min): 110%
Papp % (permeability coefficient compared to KYNA) ([1]; 60 min): 89%
Differences among permeability of KYNA, xanthurenic acid and 39B ([1]; 10 µM): not statistically significant
Structure (SMILES): O=C(O)c1cc(O)c2cccc(O)c2n1 [xanthurenic acid]
